# Assay results as given in article PMC8167039, “A Comparative Study of Human and Zebrafish Pregnane X Receptor Activities of Pesticides and Steroids Using In Vitro Reporter Gene Assays” (Frontiers in Endocrinology, 2021).
# Entries after “also recorded” stand apart in the source; their conditions may differ. Where two headings read alike, the source gives them in different places.
# Columns and labels:
# hPXR = target: T1, hPXR (Homo sapiens, UniProt O75469); assay: HG5LN Gal4-hPXR luciferase reporter gene assay, agonism
# T1 sequence (O75469 146-433 limits assumed): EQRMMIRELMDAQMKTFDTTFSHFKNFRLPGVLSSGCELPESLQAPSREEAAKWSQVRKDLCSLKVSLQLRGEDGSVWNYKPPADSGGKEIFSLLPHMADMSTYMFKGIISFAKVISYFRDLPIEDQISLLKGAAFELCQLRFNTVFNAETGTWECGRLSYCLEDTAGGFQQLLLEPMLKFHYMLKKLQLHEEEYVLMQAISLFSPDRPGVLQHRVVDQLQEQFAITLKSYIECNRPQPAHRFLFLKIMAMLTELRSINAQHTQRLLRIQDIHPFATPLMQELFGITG
# Description: (§1) The cell lines used in this study are listed in Supplementary Table 3 . The HG5LN, HG5LN Gal4-hPXR and HG5LN Gal4-zfPXR cell lines were previously described ([19]). Briefly, HeLa cells stably transfected with the GAL4RE5-βGlobin-Luc-SVNeo plasmid (HG5LN cell line) ([15]). HG5LN cells were stably transfected with the pSG5-GAL4(DBD)-hPXR(LBD)-puro or pSG5-GAL4(DBD)-zfPXR(LBD)-puro plasmids.
# (§2) HG5LN cells were cultured in Dulbecco’s Modified Eagle Medium: Nutrient Mixture F-12 (D-MEM/F-12) containing phenol red and 1 g/L glucose and supplemented with 5% fetal bovine serum, 100 units/mL of penicillin and 100 µg/mL of streptomycin supplemented with 1 mg/mL geneticin in a 5% CO2 humidified atmosphere at 37°C. HG5LN GAL4-hPXR and GAL4-zfPXR were cultured in the same culture medium supplemented with 0.5 µg/mL puromycin.
# (§3) The ability of chemicals to modulate the hPXR and zfPXR was investigated in HG5LN, HG5LN-hPXR, HG5LN-zfPXR, and ZFL-zfPXR cell lines after exposure to serial dilutions of the compounds and measurement of luciferase activity. […] Briefly, cells were seeded in 96-well white opaque flat bottom microplates at 0.5 10^5 cells per well in culture medium. […] Cells were then exposed to a concentration range of the compounds by using an automated workstation (Biomek 3000, Beckman Coulter). The final concentration of DMSO in the well never exceeds 0.1% (v/v). After 16h of exposure, medium was removed and 50 µL of test medium containing 0.3 mM D-luciferin were added per well. After 5 min, the production of light was assessed in living cells using microplate reader (MicroBeta, PerkinElmer SAS, Courtabœuf, France).
# (§4) In the transactivation assay, each compound was tested at various concentrations in three independent experiments at least. For each experiment, tests were performed in quadruplicates for each concentration, and data are expressed by means values with standard deviations. […] This allowed to determine EC50 and IC50 values of tested chemicals.
# zfPXR = zfPXR (Danio rerio, UniProt A5WYG8); assay: HG5LN Gal4-zfPXR luciferase reporter gene assay, agonism; type: cell-based, zebrafish; design: Emax: dose or concentration left out as unconfirmed; settings: for Emax: HG5LN, read-out: zfPXR agonism Max; for effect on zfPXR transcriptional activity (in words): HG5LN Gal-zfPXR cells
# Sequence of zfPXR (A5WYG8 entry or part of it): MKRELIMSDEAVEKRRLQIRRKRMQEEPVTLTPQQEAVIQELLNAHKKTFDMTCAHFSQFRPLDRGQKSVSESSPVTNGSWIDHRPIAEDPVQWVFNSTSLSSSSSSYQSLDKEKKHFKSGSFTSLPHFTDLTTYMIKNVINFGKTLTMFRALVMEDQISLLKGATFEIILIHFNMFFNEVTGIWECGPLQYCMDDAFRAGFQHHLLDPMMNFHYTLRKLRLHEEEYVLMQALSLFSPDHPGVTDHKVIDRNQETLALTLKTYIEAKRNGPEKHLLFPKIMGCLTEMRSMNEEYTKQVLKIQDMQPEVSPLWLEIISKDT
# Description: as §1, §2, §3, §4
# [1] = HG5LN-hPXR, maximal activity at 10 µM, % of maximal induced by 3 µM SR 12813, DMSO 19 ± 6
# [2] = HG5LN-zfPXR cells, 16h exposure, n.a. = not active, read-out: zfPXR agonism EC50
compound,measurement,setting,value
CCOc1ccc(C(C)(C)COCc2cccc(Oc3ccccc3)c2)cc1 [Etofenprox],EC50,hPXR,3 ± 0.2 µM
same,hPXR agonism Max,hPXR; [1],81%
Oc1ccc(C(c2ccc(O)cc2)C(Cl)(Cl)Cl)cc1 [HPTE],EC50,zfPXR; [2],1.8 ± 0.04 µM
same,zfPXR agonism Max,"zfPXR; HG5LN-zfPXR, maximal activity at 10 µM, % of maximal induced by 1 µM clotrimazole, DMSO 28 ± 1.7",37%
CCCOC/C(=N\c1ccc(Cl)cc1C(F)(F)F)n1ccnc1 [Triflurnizole],EC50,hPXR,21 ± 14 µM
same,EC50,zfPXR,6 ± 0.8 µM
same,Emax,zfPXR,48%
O=C(Nc1ccccc1-c1ccc(Cl)cc1)c1cccnc1Cl [Boscalid],EC50,hPXR,13 ± 1.1 µM
same,EC50,zfPXR,58 ± 82 µM
same,Emax,zfPXR,41%
N#CC(CCc1ccc(Cl)cc1)(Cn1cncn1)c1ccccc1 (stereo not drawn) [Fenbuconazole],EC50,hPXR,32 ± 13 µM
same,hPXR agonism Max,hPXR,43%
"C#C[C@]1(O)C=C[C@H]2[C@@H]3CCC4=CC(=O)CC[C@@H]4[C@H]3CC[C@@]21CC [Gestodene, reference compound]",EC50,zfPXR; [2],0.18 ± 0.01 µM
C=CC(C)(O)C(=O)Nc1cc(Cl)cc(Cl)c1 (stereo not drawn) [Vinclozolin M2],EC50,hPXR,39 ± 9.6 µM
"C#C[C@]1(OC(C)=O)CC[C@H]2[C@@H]3CCC4=C[C@@H](OC(C)=O)CC[C@@H]4[C@H]3CC[C@@]21C [Etynodiol diacetate, reference compound]",EC50,zfPXR; [2],0.32 ± 0.02 µM
ClC1=C(Cl)[C@]2(Cl)[C@H]3[C@H]([C@H](Cl)[C@]4(Cl)O[C@H]34)[C@@]1(Cl)C2(Cl)Cl [Oxychlordane],EC50,hPXR,4.3 ± 0.3 µM
same,hPXR agonism Max,hPXR; [1],69%
COc1ccc(C(c2ccc(OC)cc2)C(Cl)(Cl)Cl)cc1 [Methoxychlor],EC50,hPXR,17 ± 1.7 µM
same,hPXR agonism Max,hPXR,49%
N#Cc1nn(-c2c(Cl)cc(C(F)(F)F)cc2Cl)c(N)c1S(=O)(=O)C(F)(F)F [Fipronil sulfone],EC50,hPXR,5.4 ± 0.4 µM
same,hPXR agonism Max,hPXR,73%
"CC(=O)[C@@]1(O)CC[C@H]2[C@@H]3C[C@H](C)C4=CC(=O)CC[C@]4(C)[C@H]3CC[C@@]21C [Medroxyprogesterone, reference compound]",EC50,hPXR,18 ± 2.4 µM
same,hPXR agonism Max,hPXR; [1],50%
CC(C)[C@H](Nc1ccc(C(F)(F)F)cc1Cl)C(=O)OC(C#N)c1cccc(Oc2ccccc2)c1 (stereo partly drawn) [Fluvalinate],EC50,hPXR,1.1 ± 0.1 µM
same,hPXR agonism Max,hPXR; [1],74%
COC(=O)NC(=S)Nc1ccccc1NC(=S)NC(=O)OC [Thiophanate-methyl],EC50,hPXR,35 ± 7.3 µM
same,hPXR agonism Max,hPXR; [1],46%
O=C(NC(=O)c1c(F)cccc1F)Nc1ccc(Oc2ccc(C(F)(F)F)cc2Cl)cc1F [Flufenoxuron],EC50,zfPXR,8.9 ± 0.6 µM
"CCOP(=O)(OCC)C(=Cc1cc(C(C)(C)C)c(O)c(C(C)(C)C)c1)P(=O)(OCC)OCC [SR12813, reference compound]",effect on zfPXR transcriptional activity (in words),zfPXR,not active; also recorded: do not modulate
"Clc1ccccc1C(c1ccccc1)(c1ccccc1)n1ccnc1 [Clotrimazole, reference compound]",EC50,hPXR,1 ± 0.1 µM
Oc1cc(Cl)ccc1Oc1ccc(Cl)cc1Cl [Triclosan],hPXR agonism Max,hPXR,62%
"C#C[C@]1(O)CC[C@H]2[C@@H]3CCC4=CC(=O)CC[C@@H]4[C@H]3CC[C@@]21CC [Levonorgestrel, reference compound]",EC50,zfPXR,1.4 ± 0.2 µM
same,Emax,zfPXR,74%
"CC(=O)O[C@]1(C(C)=O)CC[C@H]2[C@@H]3C=C(C)C4=CC(=O)CC[C@]4(C)[C@H]3CC[C@@]21C [Megestrol acetate, reference compound]",EC50,hPXR,19 ± 4.3 µM
"CO[C@H]1/C=C/O[C@@]2(C)Oc3c(C)c(O)c4c(O)c(c(/C=N/N5CCN(C)CC5)c(O)c4c3C2=O)NC(=O)/C(C)=C\C=C\[C@H](C)[C@H](O)[C@@H](C)[C@@H](O)[C@@H](C)[C@H](OC(C)=O)[C@@H]1C [Rifampicin, reference compound]",effect on zfPXR transcriptional activity (in words),zfPXR,do not modulate
CCOc1ccc(NC(=O)OC(C)C)cc1OCC [Diethofencarb],EC50,hPXR,19 ± 2.4 µM
same,hPXR agonism Max,"hPXR; HG5LN-hPXR, compounds marked *, not tested above 3 µM (clotrimazole, SPA70: 1 µM), % of maximal induced by 3 µM SR 12813, DMSO 19 ± 6",45%
CC(C)C(C(=O)OC(C#N)c1cccc(Oc2ccccc2)c1)c1ccc(Cl)cc1 (stereo not drawn) [Fenvalerate],EC50,hPXR,1.7 ± 0.05 µM
same,hPXR agonism Max,hPXR,79%
